Experimental data published in the NIST ThermoML archive (doi:10.1021/je5010214).

Details: Liquid, Vibrating tube method

CCCCCCC [heptane]
Details	mass density [kg/m3]
343.15 K, 47908 kPa	688
343.15 K, 50059 kPa	689.668
343.15 K, 52026 kPa	691.103
343.15 K, 59944 kPa	696.69
343.15 K, 61966 kPa	697.921
343.15 K, 65070 kPa	699.939
343.15 K, 66059 kPa	700.533
343.16 K, 34034 kPa	676.976
343.16 K, 54918 kPa	693.158
343.16 K, 57986 kPa	695.23
348.15 K, 100.3 kPa	636.109
348.15 K, 462.2 kPa	636.505
348.15 K, 859.8 kPa	637.192
348.15 K, 974.2 kPa	637.393
348.15 K, 1974.9 kPa	638.781
348.15 K, 3051.1 kPa	640.295
348.15 K, 5094 kPa	643.002
348.15 K, 10025 kPa	649.256
348.15 K, 14792 kPa	654.622
348.15 K, 20111 kPa	660.386
348.15 K, 22163 kPa	662.539
348.15 K, 28080 kPa	668.108
348.15 K, 30149 kPa	670.002
348.15 K, 32161 kPa	671.799
348.15 K, 32935 kPa	672.452
348.15 K, 33959 kPa	673.504
348.15 K, 35045 kPa	674.428
348.15 K, 37937 kPa	676.834
348.15 K, 40026 kPa	678.502
348.15 K, 45051 kPa	682.511
348.15 K, 47915 kPa	684.825
348.15 K, 49950 kPa	686.336
348.15 K, 52167 kPa	688.088
348.15 K, 55022 kPa	690.168
348.15 K, 57945 kPa	692.261
348.15 K, 62063 kPa	695.106
348.15 K, 64942 kPa	696.91
348.15 K, 66153 kPa	697.788
348.16 K, 291.7 kPa	636.475
348.16 K, 7050.2 kPa	645.632
348.16 K, 9003.2 kPa	648.038
348.16 K, 12187 kPa	651.83
348.16 K, 17899 kPa	658.098
348.16 K, 25100 kPa	665.329
348.16 K, 32942 kPa	672.463
348.16 K, 42066 kPa	680.23
348.16 K, 60030 kPa	693.748
353.15 K, 100.5 kPa	631.649
353.15 K, 336 kPa	631.995
353.15 K, 572.6 kPa	632.233
353.15 K, 926 kPa	632.774
353.15 K, 1016.4 kPa	632.95
353.15 K, 2992.1 kPa	635.919
353.15 K, 4963.9 kPa	638.644
353.15 K, 7000.9 kPa	641.284
353.15 K, 9062.3 kPa	643.911
353.15 K, 10005 kPa	645.176
353.15 K, 12128 kPa	647.788
353.15 K, 14954 kPa	651.028
353.15 K, 17977 kPa	654.406
353.15 K, 19937 kPa	656.492
353.15 K, 21894 kPa	658.507
353.15 K, 24908 kPa	661.562
353.15 K, 27850 kPa	664.482
353.15 K, 29936 kPa	666.345
353.15 K, 31876 kPa	668.022
353.15 K, 32911 kPa	668.934
353.15 K, 32961 kPa	669.075
353.15 K, 34945 kPa	670.985
353.15 K, 37913 kPa	673.509
353.15 K, 40143 kPa	675.336
353.15 K, 42067 kPa	677.003
353.15 K, 45002 kPa	679.292
353.15 K, 48029 kPa	681.775
353.15 K, 50145 kPa	683.478
353.15 K, 52082 kPa	685.052
353.15 K, 55132 kPa	687.213
353.15 K, 57980 kPa	689.013
353.15 K, 60098 kPa	690.731
